Results on ten molecules are retold here after ChEMBL document CHEMBL1201862, “PubChem BioAssay data set” (2004).

What all share (assay): NCI anticancer screen, dose series, 48 h
The subject of assay [1] is A498.
The test system of assay [2] is ACHN.
The subject of assay [3] is COLO 205.
Assay [4] relates to DU-145.
Assay [5] concerns HCC 2998.
Assay [6] has as its system HCT-116.
Assay [7] has as its system HOP-62.
For assay [8], the system named is HOP-92.
Assay [9] deals with HT-29.
The test system of assay [10] is MCF7.
Assay [11] has as its system MDA-MB-435.
Assay [12] concerns MOLT-4.
The test system of assay [13] is Malme-3M.
Assay [14] deals with NCI-H226.
In assay [15] the test system is NCI/ADR-RES.
The test system of assay [16] is OVCAR-4.
Assay [17] has as its system SF-295.
Assay [18] concerns SK-MEL-5.
Assay [19] deals with U-251.
For assay [20], the system named is RPMI-8226.

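Method: 48-hour compound exposure of cells in 96-well plates, five concentrations, linear interpolation of endpoints. GI50: concentration for 50% inhibition of growth.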 Active and inactive are the calls of the source. Cut-off read from the data, not from the text of the source: active = GI50 up to about 1.1 µM and inactive = higher.

Consider `C=CCn1c(-c2ccc(-c3cs/c(=N\N=O)n3CC=C)cc2)cs/c1=N\N=O`, for which the GI50 in [1] is > 100 µM (inactive); in assay [2] it was > 100 µM (inactive); in assay [3], > 100 µM (inactive); in [4] it was > 100 µM (inactive); in assay [5], > 100 µM (inactive); in assay [6] it was 79.1 µM (inactive). In addition, the GI50 is 64.3 µM (inactive) in [7]; > 100 µM (inactive) in assay [8]; > 100 µM (inactive) in assay [9]; > 100 µM (inactive) in [10]; > 100 µM (inactive) in [11]; > 100 µM (inactive) in assay [12]. For the same molecule, the GI50 in assay [13] is > 100 µM (inactive); in [14], > 100 µM (inactive); in assay [15], > 100 µM (inactive); in assay [16], 22.2 µM (inactive); in [17], 91 µM (inactive); in assay [18], > 100 µM (inactive). Moreover, the GI50 in assay [19] is 61.1 µM (inactive).

As to `CCN(CC)CCNc1ccc2ncn3c4c(OC)cccc4c(=O)c1c23`, the GI50 in assay [1] is 13.9 µM (inactive); in assay [2] it was 3.38 µM (inactive); in assay [3], 1.91 µM (inactive); in assay [4], 4.5 µM (inactive); in assay [5], 4.94 µM (inactive); in assay [6] it was 0.54 µM (active). Further, the GI50 is 6.67 µM (inactive) in [7]; 4.27 µM (inactive) in assay [8]; 4.04 µM (inactive) in assay [9]; 2.47 µM (inactive) in assay [10]; 6.58 µM (inactive) in assay [11]; 0.912 µM (active) in [12]. Besides, the GI50 is 6.76 µM (inactive) in assay [13]; 5.86 µM (inactive) in [14]; 1.79 µM (inactive) in [15]; 2.93 µM (inactive) in assay [16]; 10.4 µM (inactive) in assay [17]; 2.38 µM (inactive) in assay [18]. The GI50 in [19] was 4.89 µM (inactive).

With `S=C(S)NCNC(=S)S`, the GI50 in [1] was 89.7 µM (inactive); in [2], > 100 µM (inactive); in assay [3], > 100 µM (inactive); in assay [4] it was > 100 µM (inactive); in assay [5] it was > 100 µM (inactive); in assay [6], > 100 µM (inactive). Also, the GI50 in assay [7], in assay [8], in assay [9], in assay [10], in [11] and in assay [12] was > 100 µM (inactive) in each case. Besides, the GI50 in assay [13], in assay [15], in assay [16], in assay [20], in assay [17] and in assay [18] was > 100 µM (inactive) throughout. Also, in assay [19], the GI50 is > 100 µM (inactive).

In the case of `C[C@@H]1CC[C@]2(C(=O)O)CC[C@]3(C)C(=CC[C@@H]4[C@@]5(C)CC[C@H](O)C(C)(C)[C@@H]5CC[C@]43C)[C@@H]2[C@]1(C)O` [POMOLIC ACID], the GI50 in assay [1] is 19 µM (inactive); in [2], 16.5 µM (inactive); in assay [3] it was 16.4 µM (inactive); in assay [4], 8.97 µM (inactive); in [5], 15 µM (inactive); in assay [6], 12.2 µM (inactive). For the same molecule, the GI50 in [8] is 4.45 µM (inactive); in assay [10], 20 µM (inactive); in [11], 15.5 µM (inactive); in assay [12], 4.86 µM (inactive); in assay [13], 12.3 µM (inactive); in assay [15] it was 15.5 µM (inactive). Also, the GI50 in assay [16] is 16.8 µM (inactive); in assay [20] it was 16.3 µM (inactive); in [17] it was 3.22 µM (inactive); in assay [19], 14.1 µM (inactive).

On to `CC(C)C(=O)C(C)(C)CCc1ccccn1`, for which the GI50 in assay [1], in assay [2], in [3], in assay [4], in assay [5] and in assay [6] was > 100 µM (inactive) in each case. The GI50 in assay [7], in assay [8], in assay [9], in assay [10], in assay [11] and in [13] was > 100 µM (inactive) in each case. The GI50 in assay [14], in assay [15], in assay [16], in assay [20], in assay [17] and in assay [18] was > 100 µM (inactive) each time. In [19], the GI50 is > 100 µM (inactive).

Regarding `O=C(OCc1ccccc1CN1CCOCC1)c1cccc(Br)c1`, the GI50 was > 100 µM (inactive) in [1]; 63.1 µM (inactive) in assay [2]; 39.4 µM (inactive) in [3]; 71 µM (inactive) in assay [4]; 28.3 µM (inactive) in [5]; 32.9 µM (inactive) in [6]. The GI50 was 53.2 µM (inactive) in assay [7]; 43.6 µM (inactive) in [8]; 16 µM (inactive) in [9]; 37 µM (inactive) in [10]; > 100 µM (inactive) in [11]; < 0.01 µM (active) in [12]. The GI50 in assay [13] is 21.7 µM (inactive); in assay [14], 44.8 µM (inactive); in [15], 26.7 µM (inactive); in assay [16] it was 20.9 µM (inactive); in assay [18], 17.7 µM (inactive); in assay [19], 47.6 µM (inactive).

Regarding `CCCCCCCCCCCCc1ccsc1-c1ccc(-c2ccc(-c3sc(-c4cc(CCCCCCCCCCCC)c(-c5ccc(-c6ccc(-c7sccc7CCCCCCCCCCCC)s6)s5)s4)cc3CCCCCCCCCCCC)s2)s1`, the GI50 in [1], in assay [2], in [3], in [4], in [5] and in assay [6] was > 100 µM (inactive) in each case. The GI50 in [7], in assay [8], in [9], in [10], in [11] and in [12] was > 100 µM (inactive) throughout. The GI50 in [14], in assay [15], in [16], in assay [20], in assay [17] and in assay [18] was > 100 µM (inactive) throughout. For the same molecule, the GI50 in assay [19] is > 100 µM (inactive).

For the molecule `COc1c2c(cc3c1C(=O)c1c(O)cccc1C3=O)CC(O)CC2` (stereo unspecified), the GI50 in assay [1] was 22.8 µM (inactive); in [2] it was 23.6 µM (inactive); in [3], > 100 µM (inactive); in [4], 57.7 µM (inactive); in [5], > 100 µM (inactive); in assay [6], 24.6 µM (inactive). Moreover, the GI50 in [7] is 19.3 µM (inactive); in assay [8], 18.7 µM (inactive); in assay [9], > 100 µM (inactive); in assay [10] it was > 100 µM (inactive); in assay [11], > 100 µM (inactive); in [12] it was > 100 µM (inactive). The GI50 in assay [13] was 49.8 µM (inactive); in assay [14], 54.5 µM (inactive); in assay [15], 35.8 µM (inactive); in assay [16] it was > 100 µM (inactive); in assay [17], 19.2 µM (inactive); in assay [18], > 100 µM (inactive). For the same molecule, the GI50 in assay [19] is 50.9 µM (inactive).

Take `CCCCCCCCCCCCCCCCCC(=O)Nc1ccn(C2CCC(COP(=O)(O)O)O2)c(=O)n1` (stereo unspecified): the GI50 in [1], in assay [2], in [3], in assay [4], in assay [5] and in [6] was > 100 µM (inactive) in each case. Moreover, the GI50 in assay [7], in [8], in assay [9], in assay [10], in assay [11] and in assay [12] was > 100 µM (inactive) in each case. The GI50 in assay [14], in assay [15], in assay [16], in assay [20], in assay [17] and in [18] was > 100 µM (inactive) in each case. Besides, in [19], the GI50 is > 100 µM (inactive).

For the molecule `C=CCN1CC2CN=NC2(C#N)C1` (stereo unspecified), the GI50 in assay [1], in [2], in assay [3], in [4], in assay [5] and in assay [6] was > 100 µM (inactive) throughout. Besides, the GI50 in [7] is > 100 µM (inactive); in assay [8], 2.33 µM (inactive); in [9], > 100 µM (inactive); in [10], > 100 µM (inactive); in assay [11], > 100 µM (inactive); in assay [12], > 100 µM (inactive). For the same molecule, the GI50 in assay [13], in assay [14], in assay [15], in assay [16], in [17] and in assay [18] was > 100 µM (inactive) in each case. The GI50 in assay [19] is > 100 µM (inactive).
